Test results: article PMC5400565, “Real-time near-infrared fluorescence imaging using cRGD-ZW800-1 for intraoperative visualization of multiple cancer types” (Oncotarget, 2017)

How the values were obtained:
Potassium Channel hERG [1] = biological target: T1, Potassium Channel hERG (Homo sapiens, UniProt Q12809)
[2] = system: GABA channels BZD (central); assay: Off-target screening (Eurofins Cerep), BZD (central); assay type: binding
Source text: (§1) Off-target interactions are binding of tracers to other components on the cell surface than the actual target site. These non-specific interactions are often of low affinity and easily missed, but can have significant effects. We outsourced the screening for in vitro for off-target interactions of cRGD-ZW800-1 to Eurofins Cerep SA, Le bois l’Evêque, France. They assessed the percentage of inhibition of a reference compound in 44 selected targets, including G protein-coupled receptors (GPCRs), transporters, ion channels, nuclear receptors, kinases and other non-kinase enzymes. These targets were recommended by four major pharmaceutical companies. The complete list is included in Supplementary Table 1 of the Supplementary Data. Each assay was performed twice using 10 μM cRGD-ZW800-1 and a reference compound. Inhibition higher than 50% was considered to represent a significant effect of cRGD-ZW800-1. Results showing between 20% and 50% were considered weak to moderate effects, while lower than 20% was not considered significant and mostly attributable to variability of the signal around the control level.

Serotonin 5-HT1B = biological target: T2, Serotonin 5-HT1B (Rattus norvegicus, UniProt P28564); assay: Off-target screening (Eurofins Cerep), 5-HT1B; assay type: binding
T2 construct: Eurofins Cerep SA (contract screening)

Muscarinic M3 = biological target: T3, Muscarinic M3 (Homo sapiens, UniProt P20309); assay: Off-target screening (Eurofins Cerep), M3; assay type: binding
T3 construct: Eurofins Cerep SA (contract screening)

[3] = biological target: T4, Norepinephrine transporter (Homo sapiens, UniProt P23975); assay: Off-target screening (Eurofins Cerep), norepinephrine transporter; assay type: binding
T4 construct: Eurofins Cerep SA (contract screen)

Muscarinic M1 = biological target: T5, Muscarinic M1 (Homo sapiens, UniProt P11229); assay: biochemical; assay type: binding
T5 construct: Eurofins Cerep SA (contract screening)

Adenosine A2A = biological target: T6, Adenosine A2A (Homo sapiens, UniProt P29274); assay: Off-target screening (Eurofins Cerep), A2A; assay type: binding
T6 construct: Eurofins Cerep SA (contract screening)

[4] = biological target: T7, GR (steroid nuclear receptor) (Homo sapiens, UniProt P04150); assay: Off-target screening (Eurofins Cerep), GR; assay type: binding
T7 construct: Eurofins Cerep SA (contract screen)

Na+ channel (site 2) = assay: Off-target screening (Eurofins Cerep), Na+ channel; assay type: binding
Source text: as §1

COX1 = biological target: T8, COX1 (Homo sapiens, UniProt P23219); assay: Off-target screening (Eurofins Cerep), COX1; assay type: biochemical
T8 construct: Eurofins Cerep SA (contract screen)

[5] = system: orthotopic HT-29 colon tumors; assay: In vivo competition, orthotopic HT-29 model; design: species or system mice
Procedure: All animals were imaged using a Pearl® imager (LI-COR, Lincoln, NE) and an original FLARE® prototype. Animals with HT-29 tumors were imaged at 4 and 24 h post injection; animals with BxPC-3 and OSC-19 tumors at 4 h only. Animals with MCF-7 tumors were imaged at 0.5, 1, 2, 4, 6, 8, 24 and 48 h post injection. The specific and control images were normalized and regions of interest (ROIs) were selected using associated software. TBRs were calculated by dividing the tumor signal by the background signal. Based on our experience a TBR ≥ 2 is sufficient to discriminate between tumor and surrounding tissue.
The binding specificity of cRGD-ZW800-1 was explored in a competition experiment using an excess of unlabeled cRGD (200-fold excess) co-injected with a standard dose of 10 nmol cRGD-ZW800-1 (n = 4). Simultaneously, mice (n = 3) were injected with 10 nmol cRGD-ZW800-1 as positive control. All mice had orthotopic HT-29 colon tumors. Images were acquired at 4 and 24 h post-injection after which animals were sacrificed and organs were resected and scanned with Pearl®.

Potassium Channel hERG [6] = biological target: T1, Potassium Channel hERG; remark: listed apart in the source
tumors = assay: Estimated concentration inside tumors in humans; details: after administering 63 μg/kg, assuming tumor uptake comparable to RGD-PET tracer
dopamine receptor D2S = biological target: T9, dopamine receptor D2S (Homo sapiens, UniProt P14416); assay: Off-target screening (Eurofins Cerep), D2S; assay type: binding
T9 construct: Eurofins Cerep SA (contract screening)

[7] = biological target: Ca2+ channel (L, dihydropyridine site) (Rattus norvegicus, UniProt P22002); assay: Off-target screening (Eurofins Cerep), Ca2+ channel; assay type: binding
Source text: as §1

HT-29 cells = assay: Binding assay of cRGD-ZW800-1 on cells; assay type: cell-based, human
cyclooxygenase-2 (COX-2) = biological target: T10, cyclooxygenase-2 (COX-2) (Homo sapiens, UniProt P35354); assay: Off-target screening (Eurofins Cerep), COX2; assay type: biochemical
T10 construct: Eurofins Cerep SA (contract screen)

Dopamine transporter = biological target: T11, Dopamine transporter (Homo sapiens, UniProt Q01959); assay: Off-target screening (Eurofins Cerep), dopamine transporter; assay type: binding
T11 construct: Eurofins Cerep SA (contract screening)

Muscarinic M2 = biological target: T12, Muscarinic M2 (Homo sapiens, UniProt P08172); assay: Off-target screening (Eurofins Cerep), M2; assay type: binding
T12 construct: Eurofins Cerep SA (contract screening)

[8] = 10 μM, mean of 2, read-out: % of Control Specific Binding Mean
[9] = read-out: % Inhibition of Control Specific Binding
[10] = read-out: % of Control Specific Binding Mean
[11] = 10 μM cRGD-ZW800-1, format H, An, performed twice, read-out: % Inhibition of Control Specific Binding
[12] = 10 μM cRGD-ZW800-1, format H, Ag, performed twice, read-out: % Inhibition of Control Specific Binding
[13] = 10 μM cRGD-ZW800-1, format H, performed twice, read-out: % Inhibition of Control Specific Binding

T1 sequence (Q12809 whole entry): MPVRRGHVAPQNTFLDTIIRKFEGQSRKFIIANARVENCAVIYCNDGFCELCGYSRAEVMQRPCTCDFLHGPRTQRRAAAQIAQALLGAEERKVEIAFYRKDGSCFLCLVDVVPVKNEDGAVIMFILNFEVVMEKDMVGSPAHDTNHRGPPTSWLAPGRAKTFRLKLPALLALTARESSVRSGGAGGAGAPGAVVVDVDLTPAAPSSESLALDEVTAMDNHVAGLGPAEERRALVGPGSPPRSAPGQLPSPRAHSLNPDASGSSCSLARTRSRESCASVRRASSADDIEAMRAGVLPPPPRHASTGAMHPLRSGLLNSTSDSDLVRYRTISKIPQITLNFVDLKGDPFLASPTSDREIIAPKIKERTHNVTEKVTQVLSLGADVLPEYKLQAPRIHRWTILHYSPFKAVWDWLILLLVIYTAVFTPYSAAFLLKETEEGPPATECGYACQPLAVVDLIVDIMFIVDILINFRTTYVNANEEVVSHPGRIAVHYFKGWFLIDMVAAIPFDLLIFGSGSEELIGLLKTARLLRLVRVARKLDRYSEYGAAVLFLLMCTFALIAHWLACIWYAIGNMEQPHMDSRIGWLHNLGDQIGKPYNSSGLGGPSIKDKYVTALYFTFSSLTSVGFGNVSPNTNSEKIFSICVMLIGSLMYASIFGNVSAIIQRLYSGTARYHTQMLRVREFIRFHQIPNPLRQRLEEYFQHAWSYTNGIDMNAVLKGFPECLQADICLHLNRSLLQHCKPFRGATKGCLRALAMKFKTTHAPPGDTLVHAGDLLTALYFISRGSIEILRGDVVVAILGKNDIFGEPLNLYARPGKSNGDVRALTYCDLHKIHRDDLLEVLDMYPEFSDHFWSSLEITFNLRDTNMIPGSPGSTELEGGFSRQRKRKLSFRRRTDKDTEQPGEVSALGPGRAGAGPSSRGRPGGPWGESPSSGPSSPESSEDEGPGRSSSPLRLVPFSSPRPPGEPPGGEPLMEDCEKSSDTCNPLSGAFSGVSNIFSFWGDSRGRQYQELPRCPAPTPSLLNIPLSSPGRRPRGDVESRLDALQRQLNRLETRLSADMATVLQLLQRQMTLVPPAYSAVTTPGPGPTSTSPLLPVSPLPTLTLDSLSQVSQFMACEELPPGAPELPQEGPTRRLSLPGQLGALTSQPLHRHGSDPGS
T3 sequence (P20309 whole entry): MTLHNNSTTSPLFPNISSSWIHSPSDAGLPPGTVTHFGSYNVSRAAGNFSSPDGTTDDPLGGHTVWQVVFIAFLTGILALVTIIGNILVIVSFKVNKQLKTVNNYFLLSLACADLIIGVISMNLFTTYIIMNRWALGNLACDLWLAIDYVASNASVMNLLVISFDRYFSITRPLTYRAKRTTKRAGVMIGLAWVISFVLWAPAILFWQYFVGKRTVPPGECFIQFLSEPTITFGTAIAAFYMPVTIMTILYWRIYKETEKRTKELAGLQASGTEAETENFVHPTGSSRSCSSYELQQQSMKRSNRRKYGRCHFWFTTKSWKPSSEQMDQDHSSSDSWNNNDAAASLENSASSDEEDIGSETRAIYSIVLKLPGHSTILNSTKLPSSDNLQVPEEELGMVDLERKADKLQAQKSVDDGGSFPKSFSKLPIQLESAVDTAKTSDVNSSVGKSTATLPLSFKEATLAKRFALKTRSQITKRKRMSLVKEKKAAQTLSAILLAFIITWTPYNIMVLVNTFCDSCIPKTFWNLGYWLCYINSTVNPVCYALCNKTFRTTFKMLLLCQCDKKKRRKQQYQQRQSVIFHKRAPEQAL
T9 sequence (P14416 1-414 isoform P14416-2): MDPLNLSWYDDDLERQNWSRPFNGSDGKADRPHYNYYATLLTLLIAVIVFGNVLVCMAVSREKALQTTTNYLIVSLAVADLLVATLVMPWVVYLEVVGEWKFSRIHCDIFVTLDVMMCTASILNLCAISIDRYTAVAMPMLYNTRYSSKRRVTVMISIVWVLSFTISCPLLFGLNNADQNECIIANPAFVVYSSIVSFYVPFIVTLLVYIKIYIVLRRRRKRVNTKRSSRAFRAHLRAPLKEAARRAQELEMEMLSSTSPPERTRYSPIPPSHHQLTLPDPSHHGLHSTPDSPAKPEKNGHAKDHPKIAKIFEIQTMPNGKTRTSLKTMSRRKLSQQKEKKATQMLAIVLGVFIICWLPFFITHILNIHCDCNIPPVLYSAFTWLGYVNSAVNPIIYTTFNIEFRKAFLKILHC
T4 sequence (P23975 whole entry): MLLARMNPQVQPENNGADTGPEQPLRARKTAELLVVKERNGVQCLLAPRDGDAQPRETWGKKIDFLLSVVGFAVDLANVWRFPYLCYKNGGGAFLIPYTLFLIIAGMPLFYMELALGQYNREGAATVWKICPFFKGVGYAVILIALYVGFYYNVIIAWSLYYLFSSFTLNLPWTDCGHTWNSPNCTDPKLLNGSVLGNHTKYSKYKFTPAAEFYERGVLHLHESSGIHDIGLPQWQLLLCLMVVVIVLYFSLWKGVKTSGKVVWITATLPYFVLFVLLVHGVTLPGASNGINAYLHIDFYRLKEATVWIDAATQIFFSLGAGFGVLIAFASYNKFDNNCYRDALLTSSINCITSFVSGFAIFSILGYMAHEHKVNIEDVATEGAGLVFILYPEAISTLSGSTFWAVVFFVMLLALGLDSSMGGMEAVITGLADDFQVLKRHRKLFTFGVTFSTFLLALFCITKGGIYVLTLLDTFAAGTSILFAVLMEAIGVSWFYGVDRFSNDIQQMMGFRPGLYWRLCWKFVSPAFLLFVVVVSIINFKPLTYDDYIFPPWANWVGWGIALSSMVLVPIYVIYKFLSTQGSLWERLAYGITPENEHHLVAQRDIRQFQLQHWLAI
T8 sequence (P23219 24-599): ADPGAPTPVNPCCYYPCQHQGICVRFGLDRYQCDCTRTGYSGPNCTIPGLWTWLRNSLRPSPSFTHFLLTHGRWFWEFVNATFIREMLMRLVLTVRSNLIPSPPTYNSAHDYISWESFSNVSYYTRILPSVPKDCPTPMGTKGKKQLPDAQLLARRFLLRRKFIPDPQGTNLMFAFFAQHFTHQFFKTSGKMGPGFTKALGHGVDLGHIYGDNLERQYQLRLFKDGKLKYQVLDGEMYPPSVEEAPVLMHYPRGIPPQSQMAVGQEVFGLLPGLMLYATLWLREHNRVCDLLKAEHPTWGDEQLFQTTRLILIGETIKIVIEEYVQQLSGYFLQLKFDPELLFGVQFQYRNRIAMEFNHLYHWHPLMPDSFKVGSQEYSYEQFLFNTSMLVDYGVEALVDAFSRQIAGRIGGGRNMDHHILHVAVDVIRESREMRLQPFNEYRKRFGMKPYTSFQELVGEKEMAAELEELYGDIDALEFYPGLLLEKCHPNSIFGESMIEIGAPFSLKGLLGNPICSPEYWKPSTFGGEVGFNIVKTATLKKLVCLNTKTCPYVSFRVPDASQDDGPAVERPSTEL
T2 sequence (P28564 whole entry): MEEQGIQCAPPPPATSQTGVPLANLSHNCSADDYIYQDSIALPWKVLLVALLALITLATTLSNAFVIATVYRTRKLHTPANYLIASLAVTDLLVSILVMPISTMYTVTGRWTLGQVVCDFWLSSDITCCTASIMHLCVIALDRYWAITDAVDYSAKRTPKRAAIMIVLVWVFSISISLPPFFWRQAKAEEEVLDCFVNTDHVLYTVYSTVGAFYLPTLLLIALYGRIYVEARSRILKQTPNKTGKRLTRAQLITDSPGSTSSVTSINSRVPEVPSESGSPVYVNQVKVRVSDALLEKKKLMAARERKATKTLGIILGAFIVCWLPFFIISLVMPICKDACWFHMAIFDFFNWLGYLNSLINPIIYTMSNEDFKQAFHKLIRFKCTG
T11 sequence (Q01959 whole entry): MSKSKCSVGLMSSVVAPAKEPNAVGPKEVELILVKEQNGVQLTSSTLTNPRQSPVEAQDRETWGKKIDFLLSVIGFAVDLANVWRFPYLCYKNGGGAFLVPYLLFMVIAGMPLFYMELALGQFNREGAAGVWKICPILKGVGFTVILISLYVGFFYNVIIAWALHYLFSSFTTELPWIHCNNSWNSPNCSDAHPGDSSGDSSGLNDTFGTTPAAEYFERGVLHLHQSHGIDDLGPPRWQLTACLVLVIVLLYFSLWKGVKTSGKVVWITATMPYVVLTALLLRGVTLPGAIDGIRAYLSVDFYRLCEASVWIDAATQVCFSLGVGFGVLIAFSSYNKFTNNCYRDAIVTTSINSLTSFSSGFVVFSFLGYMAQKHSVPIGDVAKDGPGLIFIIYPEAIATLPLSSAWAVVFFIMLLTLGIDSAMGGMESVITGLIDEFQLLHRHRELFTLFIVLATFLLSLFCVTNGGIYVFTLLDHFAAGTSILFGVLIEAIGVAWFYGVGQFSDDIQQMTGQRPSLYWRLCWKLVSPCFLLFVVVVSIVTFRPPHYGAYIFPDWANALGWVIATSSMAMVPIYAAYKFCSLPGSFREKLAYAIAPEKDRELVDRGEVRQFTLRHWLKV
T5 sequence (P11229 whole entry): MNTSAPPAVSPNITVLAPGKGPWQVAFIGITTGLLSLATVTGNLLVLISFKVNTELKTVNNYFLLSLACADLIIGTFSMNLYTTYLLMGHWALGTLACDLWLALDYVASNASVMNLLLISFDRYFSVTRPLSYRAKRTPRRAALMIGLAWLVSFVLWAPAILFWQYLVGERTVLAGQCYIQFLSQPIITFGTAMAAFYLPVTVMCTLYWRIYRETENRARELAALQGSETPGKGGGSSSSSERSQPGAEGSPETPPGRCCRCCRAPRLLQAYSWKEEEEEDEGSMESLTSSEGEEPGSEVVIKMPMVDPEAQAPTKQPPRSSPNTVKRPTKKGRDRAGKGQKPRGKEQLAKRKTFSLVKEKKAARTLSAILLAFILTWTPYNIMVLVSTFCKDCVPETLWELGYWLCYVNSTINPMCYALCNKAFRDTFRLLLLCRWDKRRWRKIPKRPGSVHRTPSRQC

## CC1(C)C(/C=C/C2=C(Oc3ccc(CCC(=O)NCCCC[C@@H]4NC(=O)[C@@H](Cc5ccc(O)cc5)NC(=O)[C@H](CC(=O)O)NC(=O)CNC(=O)[C@H](CCCNC(=N)N)NC4=O)cc3)C(=C/C=C3/N(CCC[N+](C)(C)C)c4ccc(S(=O)(=O)O)cc4C3(C)C)/CCC2)=[N+](CCC[N+](C)(C)C)c2ccc(S(=O)(=O)O)cc21 [cRGD-ZW800-1]
Potassium Channel hERG [1]
  % Inhibition of Control Specific Binding: -6%
Potassium Channel hERG [1]; 10 µM
  % of Control Specific Binding 1st: 106.4%
  % of Control Specific Binding 2nd: 104.8%
[2]; 10 μM cRGD-ZW800-1, format Ag, performed twice
  % Inhibition of Control Specific Binding: 2%
[2]; 10 μM, mean of 2
  % of Control Specific Binding Mean: 97.6%
Serotonin 5-HT1B; 10 μM cRGD-ZW800-1, format An, performed twice, read-out: % Inhibition of Control Specific Binding
  inhibition at 10 µM: 1%
Serotonin 5-HT1B; [8]
  remaining activity at 10 µM: 99.1%
Muscarinic M3; [9]
  inhibition at 10 µM: -7%
Muscarinic M3; [10]
  remaining activity at 10 µM: 107%
[3]; [11]
  inhibition at 10 µM: 3%
[3]; [8]
  remaining activity at 10 µM: 97.4%
Muscarinic M1; [9]
  inhibition at 10 µM: 5%
Muscarinic M1; [10]
  remaining activity at 10 µM: 95.5%
Adenosine A2A; [12]
  inhibition at 10 µM: 8%
Adenosine A2A; [8]
  remaining activity at 10 µM: 91.9%
[4]; [12]
  inhibition at 10 µM: 10%
[4]; [8]
  remaining activity at 10 µM: 89.9%
Na+ channel (site 2); 10 μM cRGD-ZW800-1, format An, performed twice
  % Inhibition of Control Specific Binding: 20%
Na+ channel (site 2); 10 μM, mean of 2
  % of Control Specific Binding Mean: 79.9%
COX1; [13]
  inhibition at 10 µM: -8%
COX1; [8]
  remaining activity at 10 µM: 108%
[5]; 10 nmol cRGD-ZW800-1 alone, n = 3, healthy colon as background, mean ± SD
  TBR at 4 h, control: 3.2 ± 0.5
[5]; 10 nmol cRGD-ZW800-1 co-injected with 2.0 μmol unlabeled cRGD (200-fold), n = 4, mean ± SD
  TBR at 4 h, with unlabeled cRGD: 1.8 ± 0.4
Potassium Channel hERG [6]
  activity at 10 µM: 106%
tumors
  concentration inside tumors: approximately 0.2 μM
Dopamine receptor D2S; [11]
  inhibition at 10 µM: 22%
Dopamine receptor D2S; [8]
  remaining activity at 10 µM: 78.2%
[7]; Ca2+ channel (L, dihydropyridine site), 10 μM cRGD-ZW800-1, format An, performed twice, read-out: % Inhibition of Control Specific Binding
  inhibition at 10 µM: 15%
[7]; Ca2+ channel, 10 μM, mean of 2, read-out: % of Control Specific Binding Mean
  remaining activity at 10 µM: 84.6%
HT-29 cells; 0, 125, 250, 500, 1000 nM, 1 h, Odyssey NIR scanner 800-nm channel, triplicate
  fluorescence intensity with increasing concentrations: almost linear increase
HT-29 cells; incubated at 4°C, which prevents internalization, p < 0.0001
  fluorescence signals at 4°C compared to 37°C: Significantly lower signals
cyclooxygenase-2 (COX-2); [13]
  inhibition at 10 µM: 62%
cyclooxygenase-2 (COX-2); [8]
  remaining activity at 10 µM: 38%
Dopamine transporter; [11]
  inhibition at 10 µM: 5%
Dopamine transporter; [8]
  remaining activity at 10 µM: 95%
Muscarinic M2; [11]
  inhibition at 10 µM: -20%
Muscarinic M2; [8]
  remaining activity at 10 µM: 120%
